# Measurements taken from patent US20260055079A1, “PHTHALAZINONE COMPOUNDS AS PARP7 INHIBITORS” (AZKARRA THERAPEUTICS, INC., priority 2022, published 2026).
# Read-outs that look alike come from different tables or passages of the source.
# Key:
# [1] = test system: NCI-H1373 (human lung adenocarcinoma) cells; assay: Cell proliferation assay (CellTiter-Glo), NCI-H1373; type: cell-based; details: 6 days, CellTiter-Glo, read-out: NCI-H1373 GI50
# PARP1 = PARP1 (Homo sapiens (Human), UniProt P09874); assay: PARP1 biochemical assay
# PARP1, sequence (P09874 whole entry, species assumed): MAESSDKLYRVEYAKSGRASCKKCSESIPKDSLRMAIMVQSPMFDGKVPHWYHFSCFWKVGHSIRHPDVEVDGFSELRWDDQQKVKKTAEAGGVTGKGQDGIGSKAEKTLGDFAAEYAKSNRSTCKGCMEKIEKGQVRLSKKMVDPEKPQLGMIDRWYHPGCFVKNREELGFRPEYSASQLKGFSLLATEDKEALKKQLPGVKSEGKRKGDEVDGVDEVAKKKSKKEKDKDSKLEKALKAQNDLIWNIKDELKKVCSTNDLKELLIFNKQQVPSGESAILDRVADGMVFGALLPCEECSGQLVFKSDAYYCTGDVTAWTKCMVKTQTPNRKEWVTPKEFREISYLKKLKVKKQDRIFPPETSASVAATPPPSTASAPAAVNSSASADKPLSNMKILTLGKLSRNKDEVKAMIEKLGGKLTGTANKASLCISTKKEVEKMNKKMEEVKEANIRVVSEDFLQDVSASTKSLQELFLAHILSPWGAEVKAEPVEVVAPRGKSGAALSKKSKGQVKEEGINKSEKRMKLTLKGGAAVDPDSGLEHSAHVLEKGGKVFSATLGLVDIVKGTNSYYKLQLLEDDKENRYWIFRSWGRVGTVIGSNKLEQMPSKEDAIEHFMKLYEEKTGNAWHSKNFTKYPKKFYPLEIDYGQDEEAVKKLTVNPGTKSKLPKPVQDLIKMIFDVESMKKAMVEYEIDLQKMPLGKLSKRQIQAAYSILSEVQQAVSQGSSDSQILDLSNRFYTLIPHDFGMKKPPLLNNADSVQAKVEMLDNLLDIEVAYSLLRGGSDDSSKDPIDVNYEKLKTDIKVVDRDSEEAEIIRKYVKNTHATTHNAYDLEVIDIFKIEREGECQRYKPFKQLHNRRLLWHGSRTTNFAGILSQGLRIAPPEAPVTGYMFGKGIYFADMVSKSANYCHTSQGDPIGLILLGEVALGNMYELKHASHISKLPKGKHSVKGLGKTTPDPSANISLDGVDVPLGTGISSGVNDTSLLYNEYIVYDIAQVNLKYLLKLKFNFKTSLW
# PARP2 = PARP2 (Homo sapiens (Human), UniProt Q9UGN5); assay: PARP2 biochemical assay; details: read-out: PARP2 IC50
# PARP2, sequence (Q9UGN5 whole entry): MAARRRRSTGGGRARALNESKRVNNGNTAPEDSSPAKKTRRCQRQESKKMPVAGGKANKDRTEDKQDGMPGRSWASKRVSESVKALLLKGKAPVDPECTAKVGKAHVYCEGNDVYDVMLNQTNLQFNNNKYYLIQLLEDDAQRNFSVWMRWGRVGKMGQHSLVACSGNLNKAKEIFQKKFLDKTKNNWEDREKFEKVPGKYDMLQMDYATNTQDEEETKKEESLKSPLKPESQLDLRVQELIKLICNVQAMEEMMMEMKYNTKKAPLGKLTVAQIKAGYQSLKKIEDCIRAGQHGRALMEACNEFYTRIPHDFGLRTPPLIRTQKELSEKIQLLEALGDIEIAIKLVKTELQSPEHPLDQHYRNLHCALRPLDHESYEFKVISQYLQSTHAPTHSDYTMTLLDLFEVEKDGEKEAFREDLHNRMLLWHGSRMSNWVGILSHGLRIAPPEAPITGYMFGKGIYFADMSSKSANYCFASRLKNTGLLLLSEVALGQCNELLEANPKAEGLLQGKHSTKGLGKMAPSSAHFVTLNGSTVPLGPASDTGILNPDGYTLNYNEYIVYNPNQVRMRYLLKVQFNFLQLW
# His-GST-PARP7 = His-GST-PARP7 (Homo sapiens (Human), UniProt Q7Z3E1); assay: PARP7 biochemical assay; details: read-out: PARP7 IC50
# His-GST-PARP7, sequence (Q7Z3E1 whole entry): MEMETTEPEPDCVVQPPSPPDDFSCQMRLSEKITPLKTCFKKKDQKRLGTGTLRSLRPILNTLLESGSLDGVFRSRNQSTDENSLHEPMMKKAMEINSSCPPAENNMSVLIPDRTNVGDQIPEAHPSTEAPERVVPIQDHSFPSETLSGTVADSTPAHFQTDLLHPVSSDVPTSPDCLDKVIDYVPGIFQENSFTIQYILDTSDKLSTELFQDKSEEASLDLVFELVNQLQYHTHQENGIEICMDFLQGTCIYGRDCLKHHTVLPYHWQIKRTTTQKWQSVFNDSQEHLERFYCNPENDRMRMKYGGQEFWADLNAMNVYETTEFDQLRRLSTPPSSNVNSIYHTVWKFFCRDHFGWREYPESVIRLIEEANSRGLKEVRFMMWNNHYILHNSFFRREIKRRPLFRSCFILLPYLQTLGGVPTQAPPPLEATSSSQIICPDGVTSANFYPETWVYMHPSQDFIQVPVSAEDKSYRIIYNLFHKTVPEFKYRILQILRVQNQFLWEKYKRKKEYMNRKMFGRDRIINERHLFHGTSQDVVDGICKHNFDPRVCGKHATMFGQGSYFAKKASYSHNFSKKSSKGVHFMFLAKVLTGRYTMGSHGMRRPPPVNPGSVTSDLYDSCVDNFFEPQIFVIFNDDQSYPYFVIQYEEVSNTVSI
# [2] = test system: HARA (human lung squamous cell carcinoma) cells; assay: Cell proliferation assay (CellTiter-Glo), HARA; type: cell-based; details: 6 days, CellTiter-Glo, read-out: HARA GI50
# [3] = test system: CT26 (mouse colon adenocarcinoma) cells; assay: Cell proliferation assay (CellTiter-Glo), CT26; type: cell-based; details: Mus musculus, CT26, 144 h, 6 days
# secreted IFN-β = assay: Interferon-β ELISA, CT-26 cells; type: cell-based, mouse
# Procedure: CT-26 cells were seeded into a 6-well plate. After 24 h, the growth media was replaced, and cells were treated with inhibitors. After treatment, growth media was harvested and assayed with PBL Verikine Mouse IFN-β ELISA kit following the manufacturer protocol.
# STING, pTBK1, pIRF3 = assay: STING, pTBK1 and pIRF3 western blot in CT-26 cells; type: cell-based, mouse
compound,measurement,setting,value
"CC#Cc1ccc2c(=O)[nH]nc(Cc3ccc(F)c(C(=O)N4CCn5c(nnc5C(F)(F)F)C4)c3)c2c1 [Example 65, 4-(4-fluoro-3-(3-(trifluoromethyl)-5,6,7,8-tetrahydro-[1,2,4]triazolo[4,3-a]pyrazine-7-carbonyl)benzyl)-6-(prop-1-yn-1-yl)phthalazin-1(2H)-one]",GI50,"[1]; Homo sapiens, NCI-H1373, 144 h",100 to 1000 nM
same,IC50,PARP1,50 to 100 nM
same,IC50,PARP2,50 to 100 nM
same,IC50,His-GST-PARP7,< 50 nM
"C#CC(C)Oc1ccc2c(=O)[nH]nc(Cc3ccc(F)c(C(=O)N4CCN(c5ccc(C#N)cn5)CC4)c3)c2c1 (stereo not drawn) [Example 8, 6-(4-(5-((7-(But-3-yn-2-yloxy)-4-oxo-3,4-dihydrophthalazin-1-yl)methyl)-2-fluorobenzoyl)piperazin-1-yl)nicotinonitrile]",GI50,"[2]; Homo sapiens, 144 h",1000 to 5000 nM
same,GI50,"[1]; Homo sapiens, NCI-H1373, 144 h",< 100 nM
same,IC50,PARP1,100 to 500 nM
same,IC50,PARP2,100 to 500 nM
same,GI50,[3],< 100 nM
same,IC50,His-GST-PARP7,< 50 nM
"COc1cc2c(Cc3cccc(C(=O)N4CCN(c5ccc(C#N)cn5)CC4)c3)n[nH]c(=O)c2cc1F [Example 82, 6-(4-(3-((6-Fluoro-7-methoxy-4-oxo-3,4-dihydrophthalazin-1-yl)methyl)benzoyl)piperazin-1-yl)nicotinonitrile]",GI50,"[2]; Homo sapiens, 144 h",100 to 1000 nM
same,GI50,"[1]; Homo sapiens, NCI-H1373, 144 h",< 100 nM
same,IC50,PARP1,< 50 nM
same,IC50,PARP2,< 50 nM
same,GI50,[3],< 100 nM
same,IC50,His-GST-PARP7,< 50 nM
"N#Cc1ccc(N2CCN(C(=O)c3cncc(Cc4n[nH]c(=O)c5ccc(OC6CCC6)cc45)c3)CC2)nc1 [Example 177, 6-(4-(5-((7-Cyclobutoxy-4-oxo-3,4-dihydrophthalazin-1-yl)methyl)nicotinoyl)piperazin-1-yl)nicotinonitrile]",GI50,"[2]; Homo sapiens, 144 h",> 5000 nM
same,GI50,"[1]; Homo sapiens, NCI-H1373, 144 h",< 100 nM
same,IC50,PARP1,50 to 100 nM
same,IC50,PARP2,100 to 500 nM
same,GI50,[3],> 5000 nM
same,IC50,His-GST-PARP7,< 50 nM
"N#Cc1ccc(N2CCN(C(=O)c3cccc(Cc4n[nH]c(=O)c5ccc(OC6CCC6)cc45)n3)CC2)nc1 [Example 176, 6-(4-(6-((7-Cyclobutoxy-4-oxo-3,4-dihydrophthalazin-1-yl)methyl)picolinoyl)piperazin-1-yl)nicotinonitrile]",GI50,"[2]; Homo sapiens, 144 h",> 5000 nM
same,GI50,"[1]; Homo sapiens, NCI-H1373, 144 h",100 to 1000 nM
same,IC50,PARP1,50 to 100 nM
same,IC50,PARP2,100 to 500 nM
same,GI50,[3],1000 to 5000 nM
same,IC50,His-GST-PARP7,< 50 nM
CCc1ccc(NC(=O)Nc2c[nH]c3ccccc23)cc1 [Example H-151],PARP7 inhibitor-induced induction of IFN-β,secreted IFN-β,completely blocked
"CC#Cc1cc(C(F)(F)F)c2c(=O)[nH]nc(Cc3ccc(F)c(C(=O)N4CCN(c5ccc(C#N)cn5)CC4)c3)c2c1 [Example 84, 6-(4-(2-Fluoro-5-((4-oxo-7-(prop-1-yn-1-yl)-5-(trifluoromethyl)-3,4-dihydrophthalazin-1-yl)methyl)benzoyl)piperazin-1-yl)nicotinonitrile]",GI50,"[2]; Homo sapiens, 144 h",1000 to 5000 nM
same,GI50,"[1]; Homo sapiens, NCI-H1373, 144 h",< 100 nM
same,IC50,PARP1,100 to 500 nM
same,IC50,PARP2,100 to 500 nM
same,GI50,[3],> 5000 nM
same,IC50,His-GST-PARP7,< 50 nM
"CC#Cc1ccc2c(=O)[nH]nc(Cc3ccc(F)c(C(=O)N4CCN(c5ccc(C#N)cn5)CC4)c3)c2c1C [Example 86, 6-(4-(2-Fluoro-5-((8-methyl-4-oxo-7-(prop-1-ynyl)-3,4-dihydrophthalazin-1-yl)methyl)benzoyl)piperazin-1-yl)nicotinonitrile]",GI50,"[2]; Homo sapiens, 144 h",1000 to 5000 nM
same,GI50,"[1]; Homo sapiens, NCI-H1373, 144 h",< 100 nM
same,IC50,PARP1,50 to 100 nM
same,IC50,PARP2,500 to 2000 nM
same,GI50,[3],> 5000 nM
same,IC50,His-GST-PARP7,< 50 nM
"CC#Cc1ccc2c(=O)[nH]nc(CNC(C)CC(=O)N3CCN(c4ncc(C(F)(F)F)cn4)CC3)c2c1 (stereo not drawn) [Example 191, 4-(((4-Oxo-4-(4-(5-(trifluoromethyl)pyrimidin-2-yl)piperazin-1-yl)butan-2-yl)amino)methyl)-6-(prop-1-yn-1-yl)phthalazin-1(2H)-one]",GI50,"[2]; Homo sapiens, 144 h",1000 to 5000 nM
same,GI50,"[1]; Homo sapiens, NCI-H1373, 144 h",100 to 1000 nM
same,IC50,PARP1,> 2000 nM
same,IC50,PARP2,> 2000 nM
same,GI50,[3],> 5000 nM
same,IC50,His-GST-PARP7,< 50 nM
"N#Cc1ccc(N2CCN(C(=O)c3cccc(Cc4n[nH]c(=O)c5c(F)c(F)ccc45)c3)CC2)nc1 [Example 87, 6-(4-(3-((5,6-Difluoro-4-oxo-3,4-dihydrophthalazin-1-yl)methyl)benzoyl)piperazin-1-yl)nicotinonitrile]",GI50,"[2]; Homo sapiens, 144 h",100 to 1000 nM
same,GI50,"[1]; Homo sapiens, NCI-H1373, 144 h",< 100 nM
same,IC50,PARP1,< 50 nM
same,IC50,PARP2,< 50 nM
same,GI50,[3],100 to 1000 nM
same,IC50,His-GST-PARP7,< 50 nM
"6-(4-(5-((7-cyclobutoxy-4-oxo-3,4-dihydrophthalazin-1-yl)methyl)-2-fluorobenzoyl)piperazin-1-yl)-4-methoxynicotinonitrile [Example 137]",GI50,[2],1000 to 5000 nM
same,GI50,[1],< 100 nM
same,IC50,PARP1,> 2000 nM
same,IC50,PARP2,100 to 500 nM
same,IC50,His-GST-PARP7,< 50 nM
Cc1ccc2c(=O)c3cccc(CC(=O)O)c3oc2c1C [DMXAA],STING levels,"STING, pTBK1, pIRF3",decreased substantially STING levels
same,pTBK1 and pIRF3,"STING, pTBK1, pIRF3",induced robustly both pTBK1 and pIRF3
